Here are results for five compounds from patent publication US6903130B1, “Pyrrolidineacetamide derivative alone or in combination for treatment of cns disorders” (UCB S.A., priority 1999, dated 2005).

In one data set the test system is epilepsy. The note with it: in vivo; cited from earlier work.
In data set [1] the test system is diabetic rats (streptozocin-induced diabetic neuropathy). Nature of the data set: Randall and Selitto test, mechanical hyperalgesia in streptozotocin diabetic rats. The format is in vivo, rat. The source says: In order to study the activity of levetiracetam with respect to chronic or neuropathic pain, the Applicant carried out a series of experiments based on the Randall test “A method for measurement of analgesic activity on inflamed tissue; Arch. Int. pharmacodyn., 1957, CXI, No4. P 409-419”. By virtue of this protocol, it was possible to determine the ability of levetiracetam to correct hyperalgesia secondary to induction of a neuropathic problem of metabolic origin in a rodent.
The diabetic neuropathy thereby induced allowed the correction of the hyperalgesia caused by the use of levetiracetam to be measured.
The animals used for these experiments were male Sprague-Dawley rats (Charles River, France), weighing 250-280 grams (g), which had undergone induction of diabetes one week after receipt. Male Sprague-Dawley rats (200-220 g) received one interperitoneal injection of streptozocin (75 mg/kg, i.p.) (Zanosar, Upjohn, France) dissolved in distilled water. Hyperglycaemia was confirmed one week after induction by determining the quantity of blood glucose (caudal puncture) using a Dextrostix reactive strip (Ames) read using a calorimeter (Ames Division, Miles Laboratoires, France). Animals with more than 14 millimoles (mM) were considered to be diabetic. The pain thresholds were determined 3 weeks after induction of diabetes.
This model was used in accordance with the description in COURTEIX et al., “Streptozocin-induced diabetic rats. Behavioural evidence for a model of chronic pain” Pain (1993), vol. 53, p81-88. The study was performed using the following compounds: • […]: (Laboratories UCB), dissolved in distilled water. • CARBAMAZEPINE: (Sigma), dissolved in hydroxy propel methylcellulose.
As has already been mentioned above, the test explained below was performed to stimulate a reaction in the animal with a mechanical nociceptive stimulus to a hind paw. An increasing pressure was applied using an analgesia meter (Ugo Basile, type 7200), until a cry was emitted which was considered to be the pain threshold, expressed in grams.
After determining the base thresholds, the animals received the study treatments (vehicle, levetiracetam, 17, 54, 95.2 and 120 mg/kg, carbamazepine, 10 and 30 mg/kg) administered intraperitoneally (i.p.) using the equal block method to avoid any chronobiological influence. The effects of different treatments were thus determined during the same time period. The reaction thresholds were measured 15, 30, 45, 60, 90, 120 and 180 minutes (min) after administration. All of the experiments were performed blind with 8 different animals per treatment.
The results are expressed as means±standard error of mean (S.E.M.).
The dose which could overcome 50% of the hyperalgesia induced by diabetes was calculated as the “anti-hyperalgesic dose effective 50”.
Statistical comparison was carried out by means of a two-way analysis of variance followed by Fischer's PLSD multiple comparison test to analyze the temporal effect.

Another data set relates to sound-sensitive mice. Put plainly: Rotarod test in sound-sensitive mice. The settings on record: combined treatment with 5.5 mg/kg levetiracetam. (In the rotarod test animals must keep their balance on a rotating rod.)
Data set [2] can be described thus: Plasma and brain levels after oral dosing in sound-sensitive mice. The note with it: alone or in combination with levetiracetam. As to the method: Male genetically sound-sensitive mice (17-30 g; N=10), derived from a DBA strain originally selected by Dr Lehmann of the Laboratory of Acoustic Physiology (Paris) and bred in the UCB Pharma Sector husbandry unit since 1978, were submitted to the induction of audiogenic seizures. Levetiracetam (5.4 mg/kg) and sodium valproate (166.2 mg/kg) were administered orally, alone or in combination, 60 minutes before the induction of audiogenic seizures. For testing audiogenic seizure, the mice were placed in the cages, one mouse per cage, in the sound-attenuated chamber. After a period of habituation of 30 seconds, the acoustic stimulus (90 dB, 10-20 kHz) was delivered for 30 seconds via the loud speakers. During this interval, the mice were observed and the presence of the 3 phases of the seizure activity, namely wild running, clonic and tonic convulsions, was recorded.
In all animals, blood samples were collected immediately after the seizure test (I h after dosing) by cardiac puncture under light carbon dioxide anesthesia, into heparinised microtubes. […] Levetiracetam was measured in plasma and brain samples by validated gas chromatography assay with mass detection. With sodium valproate, fluorescence polarization immunoassays were used.
The mean value plus standard deviation was calculated for plasma and brain concentrations of valproate and levetiracetam, and for the brain/plasma ratio. […]

Structures are written as SMILES. Marks after values point to notes of the source that are not given here.

For the compound `CC[C@H](C(N)=O)N1CCCC1=O` [(R)-(−)-α-ethyl-2-oxo-1-pyrrolidine-acetamide], the “activity in the treatment of epilepsy (in words)” value in the data set on epilepsy was “completely devoid of activity”.

For the compound `NC(=O)N1c2ccccc2C=Cc2ccccc21` [Carbamazepine, reference compound], the vocalization threshold in data set [1] (carbamazepine 10 mg/kg i.p. group, before diabetes (baseline), mean (SEM)) is reported as 300.9 (12.31) g; in data set [1] (carbamazepine 10 mg/kg i.p., 15 min after injection), 217.5 g; in data set [1] (carbamazepine 10 mg/kg i.p., 30 min after injection), 333.8 (14.66)* g; in data set [1] (carbamazepine 10 mg/kg i.p., 45 min after injection), 273.8 g; in data set [1] (carbamazepine 10 mg/kg i.p., 60 min after injection), 206.3 (10.51)* g; in data set [1] (carbamazepine 10 mg/kg i.p., 90 min after injection), 187.5 (8.02) g. The vocalization threshold in data set [1] (carbamazepine 10 mg/kg i.p., 120 min after injection) is 174.4 (3.95) g; in data set [1] (carbamazepine 10 mg/kg i.p., 180 min after injection), 174.4 (3.95) g; in data set [1] (carbamazepine 10 mg/kg i.p., after diabetes, 0 min (base threshold)), 170.6 (5.26) g; in data set [1] (carbamazepine 30 mg/kg i.p. group, before diabetes (baseline), mean (SEM)), 280.3 (9.92) g; in data set [1] (carbamazepine 30 mg/kg i.p., 15 min after injection), 450.0 g; in data set [1] (carbamazepine 30 mg/kg i.p., 30 min after injection), 425.6 (39.98)* g. Moreover, the vocalization threshold is 311.3 g in data set [1] (carbamazepine 30 mg/kg i.p., 45 min after injection); 230.6 (24.86)* g in data set [1] (carbamazepine 30 mg/kg i.p., 60 min after injection); 196.9 g in data set [1] (carbamazepine 30 mg/kg i.p., 90 min after injection); 174.4 (7.99) g in data set [1] (carbamazepine 30 mg/kg i.p., 120 min after injection); 170.6 (6.30) g in data set [1] (carbamazepine 30 mg/kg i.p., 180 min after injection); 152.8 (8.01) g in data set [1] (carbamazepine 30 mg/kg i.p., after diabetes, 0 min (base threshold)). Also, the “spontaneous motor activity (not quantified)” value in data set [1] (carbamazepine 30 mg/kg i.p., delayed effect, 30 min after injection) was “reduction in spontaneous motor activity”. Moreover, in data set [1] (i.p., diabetic rats), the “Effect on diabetic hyperalgesia (in words)” value is “complete reversal of diabetic hyperalgesia for the 2 doses used”.

As for `CNC1=Nc2ccc(Cl)cc2C(c2ccccc2)=[N+]([O-])C1` [chlordiazepoxide], in the data set with sound-sensitive mice, the “impairment of rotarod performance under combined treatment (in words)” value (from here on “impairment of rotarod performance”) is given as “not affected”.

In the case of `O=C1CN=C(c2ccccc2Cl)c2cc([N+](=O)[O-])ccc2N1` [clonazepam], in the data set on sound-sensitive mice, the “impairment of rotarod performance” value is “not affected”.

As to `CCC1(c2ccccc2)C(=O)NC(=O)NC1=O` [phenobarbital, reference compound], in the data set with sound-sensitive mice, the “impairment of rotarod performance” value is on record as “not affected”. In addition, in data set [2], the “plasma concentrations and brain/plasma ratio alone vs in combination with levetiracetam (in words)” value is given as “unchanged”.
